Test results as given in patent US5437980A, “Phenanthridium dye staining of nucleic acids in living cells” (Molecular Probes, Inc., priority 1993, dated 1995).
Entries after “also recorded” stand apart in the source; their conditions may differ. Blank lines part the entries; values can stand above or below the compound they belong to.

Assays:
DNA [1] = experiment: Relative DNA binding affinity, YOYO-1 over 5-DAPP/LIVE
living cells [2] = experiment: Entry into / staining of living cells, general; type: cell-based; settings: general summary; for entry into / staining of live cells: several types of cells
[3] = test system: epidermal tissue of the bulb, Alium spp.; experiment: Staining of plant cell tissue (Example 6); type: cell-based; settings: 10 μM dye, 30 min, room temperature
Description: A small section of tissue from the bulb is removed with a razor blade. 0.5 mL of a 10 μM solution of the 5-DAPP/LIVE dye in distilled water is dispensed into a small glass dish. The epidermal tissue is cut into sections and placed in the dye solution. The tissue is stained for 30 min at room temperature in the dark then the tissue preparation is mounted in the presence of the dye between a coverglass and the slide.

[4] = test system: peripheral blood lymphocytes; experiment: Staining of peripheral blood lymphocytes, fluorometer (Example 11); type: cell-based, goat; settings: for distribution of dye into nucleus of lymphocytes: on the scale of seconds
Description: Peripheral blood lymphocytes (PBL) are isolated from fresh heparinized goat blood and resuspended in buffer consisting of 135 mM NaCl, 5 mM KCl, 20 mM HEPES, 1 mM CaCl2, 1 mM MgCl2, pH 7.4 (HBSS+). The cells are resuspended to 10^6 mL (as determined by direct microscopic count using a standard hemocytometer) in a final volume of 3 mL in the above buffer in a quartz cuvette. 5-DAPP/LIVE dye stocks are prepared to final concentrations of 2 mM in DMSO. 3 μL of the octidium dye stock solution is injected into the cuvette to a final concentration of 2 μM. In a fluorometer, the sample is excited at 520 nm and fluorescence emission is monitored at 600 nm over the time required for the fluorescence signal to become stable. Hexidium, butidium and ethidium bromide are injected into separate samples of PBL to determine the relative rates of uptake for these stains. The volume of dye solution added to the cuvette is corrected by a factor relating the absorbance of the dye to the absorbance of a 2 mM octidium solution.

mushroom spores = experiment: Staining of mushroom spores by fluorescence microscopy (Example 4); type: cell-based, agaric; settings: 10-20 μM dye, 30 min, room temperature
Description: Spores are rinsed from the gills on the underside of the cap of an agaric using a stream of distilled water. The spores are concentrated by centrifugation for 30 sec at 10,000 rpm in a microcentrifuge then a minimal volume of a 10-20 μM solution of the 5-DAPP/LIVE dye in distilled water is added. The suspension is incubated with the dye for 30 min at room temperature then a 15 μL aliquot of the suspension is mounted on between a coverglass and the slide for viewing in the presence of the dye. The cellular fluorescence is observed on a Zeiss Axioplan fluorescence microscope using fluorescein (long:pass emission) or rhodamine filter sets.

Saccharomyces = experiment: Staining of yeast (Example 5); type: cell-based; settings: 10 μM dye, 30 min, 37° C.
Description: Yeast cells are washed by centrifugation and then resuspended in a solution of 2% glucose and 10 mM Na-HEPES, pH 7.4 to a cell density of between 5×10^5 and 2×10^6 cells/mL optical density at 410 nm (previously calibrated with YPD agar plate colony counts). Sufficient 10 mM stock solution of the 5-DAPP/LIVE dye in DMSO is added to effect a final concentration of 10 μM of the dye in the medium. The suspension is incubated for 30 min at 37° C. then 15 μL are placed between a coverglass and the microscope slide. The cellular fluorescence is observed using fluorescein (long-pass emission) or rhodamine filter sets.

[5] = test system: 3T3 mouse fibroblast cells; experiment: Staining of nuclei in adherent cultured mammalian cells (Example 9); type: cell-based; settings: 2 μM dye; for staining distribution, chloroquine-treated cells: group 1, 300 μM chloroquine; for staining distribution, control cells: group 2, no chloroquine; for color of nucleus and cytoplasm: one half hour, long-pass fluorescein filter (red with rhodamine excitation)
Description: 3T3 mouse fibroblast cells are grown on coverslips in calf serum-supplemented DMEM medium. The coverslips of cells are washed in HBSS+. 5-DAPP/LIVE dye solutions are prepared to a final concentration of 2 μM in DMEM without serum. One group of 3T3 cells is treated with 300 μM chloroquine (group 1). These cells and control cells (group 2) not treated with chloroquine are incubated at 37° C. for 30 min. The two groups of cells are transferred to DMEM plus 5-DAPP/LIVE. The cells are incubated in the dye-containing medium for 30 min at room temperature and are subsequently washed in HBSS+and viewed by epifluorescence microscopy using a long-pass fluorescein or a rhodamine filter set.

DNA [6] = experiment: DNA affinity (Kp) from fluorescence enhancement versus DNA concentration, microtiter plate reader; type: binding; settings: comparison in words, Table 1
Description: ^1 Fluorescence spectra obtained using a standard ratio of 200 μM
bp of DNA (bases of RNA) to 1 μM dye (standard solution) in a working
buffer (10 mM phosphate, 10% (v/v) ethanol, 1 mM EDTA and 100 mM NaCl), p
7.4. Fluorescence was measured in a Corning 96 U well plate and Cytofluor
sensitivity 4) as a function of DNA concentration from 0-100 μM at a
constant dye concentration of 0.5 μM.
^2 Fluorescence spectra obtained using the same method as above excep
the fluorescence was measured in a Cytofluor ™ 2300 (excitation filter
E (485/620); excitation D (620/640), and a sensitivity 4) as a function o
DNA concentration from 0-30 μM at a constant dye concentration of 0.1
^3 DNA affinity (Kp) determined by linear fitting of plots of
reciprocal fluorescence enhancement versus reciprocal DNA concentration,
as measured on a microtiter plate fluorescence reader (CytoFluor ™,

[7] = test system: free-living ciliate and flagellate protozoans; experiment: Staining of protozoa (Example 7); type: cell-based; settings: 1 μL of 10 mM dye in 1 mL culture, 10 min, ambient temperature
Description: 1 μL of 10 mM the 5-DAPP/LIVE dye stock is added to 1 mL of protozoan culture. The medium is incubated for 10 min at ambient temperature. 15 μL of this preparation is mounted with dye between a coverglass and the slide. Using this procedure, the nuclei of most cells of the free-living ciliate and flagellate protozoans are stained under these conditions.

Bacillus cereus = experiment: Relative rate and extent of dye uptake into living Bacillus cereus (Example 2, FIG. 1); type: cell-based; settings: 2 μM dye, 23° C., 488 nm excitation, 600 nm emission
Description: FIG. 1. Relative Uptake of Dyes into Living Cells. Uptake of ethidium, butidium, hexidium and octidium by Bacillus cereus as described in Example 2.
Bacillus cereus is grown in nutrient broth to log phase, washed by centrifugation, and resuspended in water to a density of 5×10^6 cfu/mL (as determined in Example 1). One centimeter pathlength acrylic cuvettes containing 3 mL of cell suspension are placed in a fluorescence spectrophotometer equipped with a temperature regulated cuvette holder and magnetic stirrer. The suspensions are brought to 23° C. prior to dye addition. To a cuvette of 3 mL bacteria suspension is added 3 μL of 2 mM dye stock solutions in DMSO to give a final dye concentration of 2 μM to produce the maximum attainable fluorescence/cell at the 600 nm emission wavelength (determined as in Example 1). The peak fluorescence excitation and emission wavelengths are determined by scanning the spectrum of the dye in suspensions of Bacillus cereus incubated for 30 min with the dye. Fluorescence intensity of the suspensions is measured using 488 nm excitation and 600 nm emission wavelengths. Sampling of fluorescence is carried out at 5 or 10 Hz until the fluorescence signal appears to stabilize.

nucleic acids = settings: reduced ethidium, Bucana et al. (1986); cited from earlier work
gram-positive bacteria [8] = settings: mild conditions; application Ser. No. 08/047,683; cited from earlier work
living cells [9] = settings: intact cell membrane; background; cited from earlier work
gram-negative bacteria = settings: mild conditions; application Ser. No. 08/047,683; cited from earlier work
trypanosome = settings: Watkins, J. CHEM SOC. 3059 (1952); Watkins & Woolfe; cited from earlier work
tissue culture cells = experiment: Entry into / staining pattern of tissue culture cells; type: cell-based
From the text: In some tissue culture cells, the pattern of staining is different from that observed in plant cells or bacteria. In the former case, cells are usually loaded with a brief pulse of dye, followed by a chase of buffered saline solution. These cells show a pattern of staining first in numerous intracellular compartments; e.g. lysosomes. In addition to staining these organelles first, the dyes also undergo a spectral shift to shorter wavelengths when associated with this "early-labeled compartment." If the same cells are exposed to pulses of higher concentrations of the 5-DAPP/LIVE dyes, the staining appears in the mitochondria (tubular structures that are labeled with rhodamine 123) and then, finally, in the nucleus, where it stains the nucleoli very brightly. Nucleoli are the most prominently stained area of higher eukaryotic cells, while the nuclei and cytosol usually stain in a hazy or punctate pattern in these cells. […] In plant tissues distinct nuclei tend to label uniformly, but there is frequently significant binding of the dye to cell walls. The plant cells are usually dark except for cell walls and nuclei. The characteristic binding morphology obtained using the 5-DAPP/LIVE dyes thus makes them useful in certain circumstances for identifying the type of cell in a mixed population of cells.

gram-positive bacteria [10] = experiment: Staining of live gram-positive bacteria; type: cell-based; settings: general summary

DNA binding affinity of YOYO-1 over 5-DAPP/LIVE (DNA [1]): hundred
SMILES: C[n+]1c(C=C2C=CN(CCC[N+](C)(C)CCC[N+](C)(C)CCCN3C=CC(=Cc4oc5ccccc5[n+]4C)c4ccccc43)c3ccccc32)oc2ccccc21 [YOYO-1, reference compound]
membrane permeability (living cells [2]): virtual impermeability

SMILES: CCCC[n+]1c(-c2ccccc2)c2cc(N)ccc2c2ccc(N)cc21 [butidium]
cell wall / surface staining [3]: more hazy surface staining | distribution of dye into nucleus of lymphocytes [4]: virtually instantaneous | fraction of spores brightly stained (mushroom spores): about 10% | staining of spores (in words) (mushroom spores): stains all spores | membrane permeability (living cells [2]): limited permeability in most cells | entry into / staining of live cells (living cells [2]): enters live cells slowly and is usually not very bright | staining distribution and intensity (Saccharomyces): more punctate cytoplasmic inclusions stained | staining distribution, chloroquine-treated cells [5]: stained throughout, but with a greater relative intensity of staining in the nucleus | staining distribution, control cells [5]: relatively equal staining in the nucleus and cytoplasm | color of nucleus and cytoplasm [5]: orange | binding affinity versus longer chain versions (DNA [6]): higher binding affinity than the tested longer chain versions | staining of nuclei of protozoans [7]: octidium which is better than butidium and ethidium | rate of dye loading (Bacillus cereus): increases with carbon chain length

SMILES: CCN1c2cc(N)ccc2-c2ccc(N)cc2C1c1ccccc1 (stereo not shown) [dihydrophenanthridine derivative]
nucleic acid binding (nucleic acids): does not bind to nucleic acids

SMILES: CC[n+]1c(-c2ccccc2)c2cc(N)ccc2c2ccc(N)cc21 [ethidium bromide, reference compound]
increase in fluorescence over time ([4]; 2 μM dye, 520 nm excitation, 600 nm emission): essentially no increase in fluorescence signal over time

SMILES: CC[n+]1c(-c2ccccc2)c2cc(N)ccc2c2ccc(N)cc21 [ethidium, reference compound]
cell wall / surface staining [3]: more hazy surface staining | distribution of dye into nucleus of lymphocytes [4]: not ethidium | fraction of spores entered (mushroom spores): less than 10% | entry into / staining of live cells (living cells [2]): does not enter most live cells easily | staining distribution and intensity (Saccharomyces): stains all yeast slightly with a pale red nucleus and hazy red cytoplasm | staining of live gram-positive bacteria (gram-positive bacteria [8]): does not effectively stain | suitability for staining of nucleic acids in living cells (living cells [9]): usually not suitable for staining of nucleic acids in living cells in which the cell membrane is intact | staining of live gram-negative bacteria (gram-negative bacteria): does not effectively stain | staining of nuclei of protozoans [7]: octidium which is better than butidium and ethidium | trypanocidal effectiveness / therapeutic potential (trypanosome): superior to that of other 5-DAPP derivatives with longer alkyl chains | rate of dye loading (Bacillus cereus): increases with carbon chain length

SMILES: C[n+]1c(-c2ccccc2)c2cc(N)ccc2c2ccc(N)cc21 [methidium]
trypanocidal effectiveness / therapeutic potential (trypanosome): less effective than ethidium

SMILES: CCCCCCCC[n+]1c(-c2ccccc2)c2cc(N)ccc2c2ccc(N)cc21 [octidium]
cell wall / surface staining [3]: more hazy surface staining occurs with ethidium and butidium than with hexidium or octidium | nuclear staining / staining [3]: stains identically to hexidium | distribution of dye into nucleus of lymphocytes [4]: virtually instantaneous | fraction of spores brightly stained (mushroom spores): about 10% | membrane permeability (living cells [2]): marked enhancement of membrane permeability in all systems | entry into / staining of live cells (living cells [2]): enters cell membranes quickly; also recorded: becomes bright with continued incubation | fraction of yeast with stained nuclei (Saccharomyces): less than 100% | staining distribution and intensity (Saccharomyces): somewhat less bright than hexidium staining; also recorded: markedly less cytoplasmic staining than any of the other forms | staining distribution, chloroquine-treated cells [5]: stained throughout, but with a greater relative intensity of staining in the nucleus | staining distribution, control cells [5]: relatively equal staining in the nucleus and cytoplasm | color of nucleus and cytoplasm [5]: orange | staining of nuclei of protozoans [7]: better than butidium and ethidium | rate of dye loading (Bacillus cereus): increases with carbon chain length

SMILES: Nc1ccc2c(c1)c(-c1ccccc1)[n+](CCc1ccccc1)c1cc(N)ccc21 [phenethidium]
time to enter tissue culture cells (tissue culture cells): ≥ 1 h | membrane permeability (living cells [2]): marked enhancement of membrane permeability in all systems | entry into / staining of live cells (living cells [2]): facilitates entry of the 5-DAPP dye into living cells, but at a rate that is typically slower than derivatives in which the substituent is a C4 to C8 alkyl group | entry into gram positive bacteria (gram-positive bacteria [10]): enters gram positive bacteria
